The record followed here is patent EP0028063A1, “Phenol derivatives, processes for their preparation and pharmaceutical compositions containing them” (GLAXO GROUP LIMITED, priority 1979, dated 1981).

SMILES strings stand for the structures.

Data set [1] deals with SRS-A. As to the kind of experiment: Antagonism of the action of SRS-A on guinea-pig isolated ileum (method of Coleman et al.; pA2 by Arunlakshana and Schild). The class given is cell-based. Conditions: Cavia porcellus, SRS-A induced contraction, compounds tested at concentrations of 10^-6 M. An excerpt:
The compounds according to the invention are potent antagonists of the action of slow reacting substance of anaphylaxis (SRS-A) as shown by their ability to inhibit the SRS-A induced contraction of guinea pig ileum (Coleman et al, Br. J. Pharmacol., 1979, 66, 83P). SRS-A is a naturally occurring substance which causes contraction of smooth muscle, especially bronchial muscle, and increases vascular permeability. The substance is not normally present in human tissue but is synthesised and released from certain cells during an allergic reaction. The compounds according to the invention are thus indicated for use in the treatment of disorders in which SRS-A may be a factor, for example, in obstructive airways diseases such as asthma, in hay fever and in skin afflictions.
The ability of the compounds to act as antagonists of the action of SRS-A was shown using guinea-pig isolated ileum according to the methods of Coleman et al, Br. J. Pharmacol., (1979), 66, 83P. Compounds were tested at concentrations of 10^-6 M and pA2 values were determined using the standard procedures of Arunlalkshana and Schild, Br. J. Pharmac.

The subject of data set [2] is dogs. As to the kind of experiment: Oral tolerability in dogs. Format: in vivo. Conditions: given orally to dogs at doses of up to 10 mg/kg. From the text: The compounds are in general non-toxic at therapeutically useful doses.

In data set [1], `CCCc1c(OCCCOc2ccc(OCC(=O)O)cc2)ccc(C(C)=O)c1O` [Example 1g] had a Kb of 100 nM.

Molecule `CCCc1c(OCCCOc2cccc(C=CC(=O)O)c2)ccc(C(C)=O)c1O` [Example 2a, 3-[3-[3-(4-Acetyl-3-hydroxy-2-propylphenoxy)propoxy]-phenyl]-2-propenoic acid] had an antagonist equilibrium constant (Kb) in data set [1] of 39.8 nM. Further, in data set [2], the adverse effects entry was “no adverse effects”.

In the case of `CCCc1c(OCCCOc2ccc(C(=O)O)c(O)c2CCC)ccc(C(C)=O)c1O` [Example 2c, 4-(3-(4-Aceltyl-3-hydroxy-2-propylphenoxy)propoxy] -2-hydroxy-3-propylbenzoic acid], the antagonist equilibrium constant (Kb) in data set [1] was 39.8 nM.

Regarding `CCCc1c(OCCCCCOc2cccc(C=CC(=O)O)c2)ccc(C(C)=O)c1O` [Example 4b, 3-[3-[5-(4-Acetyl-3-hydroxy-2-propylphenoxy)pentyloxy]phenyl]-2-propenoic acid], the antagonist dissociation constant (Kb) in data set [1] is 50.1 nM.

The molecule `CCCc1c(OCCCOc2cccc(CCC(=O)O)c2)ccc(C(C)=O)c1O` [Example 5, 3-[3-(4-Acetyl-3-hydroxy-2-propylphenoxy)propoxy]bepzene propanoic acid] showed an antagonist dissociation constant (Kb) in data set [1] of 50.1 nM. Moreover, the adverse effects entry in data set [2] is recorded as “no adverse effects”.

Molecule `CCCc1c(OCCCOc2ccc(C(=O)O)c(O)c2)ccc(C(C)=O)c1O` [Example 8, 4-[3-(4-Acetyl-3-hydroxy-2-propylphcnoxy)propoxy]-2-hydroxybenzoic acid] had a Kb in data set [1] of 15.8 nM. In data set [2], the adverse effects result is given as “no adverse effects”.

In turn, `CCCc1c(OCCCOc2cc(C=CC(=O)O)ccc2[N+](=O)[O-])ccc(C(C)=O)c1O` [Example 9b, 3-[3-[3-[4-Acetyl-3-hydroxy-2-propylphenoxy]propoxy]-4-nitrophenyl]-2-propenoic acid] had an antagonist dissociation constant (Kb) in data set [1] of 31.6 nM.

`CCCc1c(OCCCOc2cccc(-c3nn[nH]n3)c2)ccc(C(C)=O)c1O` [Example 10b, 5-[3-[3-[4-Acetyl-3-hydroxy-2-propylphenoxy]propoxy]-phenyl]-lH-tetrazole] gave a Kb in data set [1] of 79.4 nM.

A word on the Kb: it is the affinity of an antagonist, worked out from how it opposes an agonist. A high value points to a less potent antagonist.
